Assay results taken from patent publication US5354676A, “Recombinant modified thermostable NAD-dependent dehydrogenases and process for their production” (The University of Bristol, priority 1989, dated 1994).

Experiments:
[1] = biological target: T1, Bacillus stearothermophilus NAD-dependent L-lactate dehydrogenase, wild type (WT) (Geobacillus stearothermophilus, UniProt P00344); assay: biochemical; details: pH 6, read-out: stimulation in kcat/Km by FBP
T1 construct: made in house; host or cells: E. coli
Experimental: (§1) Steady-state reaction rates were determined by following the change in A340 due to the consumption of NADH. […] The buffer for all experiments was 100rmM triethanolamine-HC1/NaOH,pH 6.

[2] = biological target: T2, Bacillus stearothermophilus L-lactate dehydrogenase variant MVS (102-5 QKP→MVS) (Geobacillus stearothermophilus, UniProt P00344, K87V/P88S/Q86M); assay: biochemical; details: pH 6, read-out: stimulation in kcat/Km by FBP
T2 construct: made in house; host or cells: E. coli TG2, vector pKK223-3
Experimental: as §1

[3] = biological target: T3, Bacillus stearothermophilus L-lactate dehydrogenase variant MVS/GG (102-5 QKP→MVS and 235-6 AA→GG) (Geobacillus stearothermophilus, UniProt P00344, A222G/A223G/K87V/P88S/Q86M); assay: biochemical
T3 construct: made in house; host or cells: E. coli TG2, vector pKK223-3
Experimental: as §1

[4] = biological target: T4, Bacillus stearothermophilus L-lactate dehydrogenase variant GG (235-6 AA→GG) (Geobacillus stearothermophilus, UniProt P00344, A222G/A223G); assay: biochemical; details: pH 6, read-out: stimulation in kcat/Km by FBP
Experimental: as §1

[5] = biological target: T4, Bacillus stearothermophilus L-lactate dehydrogenase variant GG (235-6 AA→GG); details: No FBP, pH 6
Experimental: as §1

T3 sequence (P00344 whole entry Q86M/K87V/P88S/A222G/A223G, the tested form may be a part): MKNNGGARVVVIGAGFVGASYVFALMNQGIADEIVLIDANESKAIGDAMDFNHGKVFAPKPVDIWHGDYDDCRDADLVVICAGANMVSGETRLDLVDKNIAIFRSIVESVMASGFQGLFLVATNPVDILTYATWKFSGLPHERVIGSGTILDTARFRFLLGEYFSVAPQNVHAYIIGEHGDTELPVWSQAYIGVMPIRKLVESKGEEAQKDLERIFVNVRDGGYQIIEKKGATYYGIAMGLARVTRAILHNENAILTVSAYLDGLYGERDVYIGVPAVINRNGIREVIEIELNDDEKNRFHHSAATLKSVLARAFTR
T4 sequence (P00344 whole entry A222G/A223G, the tested form may be a part): as the sequence (P00344 whole entry Q86M/K87V/P88S/A222G/A223G, the tested form may be a part) above, with M86Q, V87K, S88P counted along it
T2 sequence (P00344 whole entry Q86M/K87V/P88S): as the sequence (P00344 whole entry Q86M/K87V/P88S/A222G/A223G, the tested form may be a part) above, with G222A, G223A counted along it
T1 sequence (P00344 whole entry): as the sequence (P00344 whole entry Q86M/K87V/P88S/A222G/A223G, the tested form may be a part) above, with M86Q, V87K, S88P, G222A, G223A counted along it

Row | Structure (SMILES) | fold induction at 5000 µM [1] | fold induction at 5000 µM [2] | fold induction at 5000 µM ([3]; pH 6, read-out: stimulation in kcat/Km by FBP) | fold induction at 5000 µM [4] | Km ([3]; MVS/GG, No FBP, pH 6) [mM] | Km [5] [mM]
1 | O=C(COP(=O)(O)O)[C@@H](O)[C@H](O)[C@H](O)COP(=O)(O)O [FBP, fructose-1,6-bisphosphate] | 50 | 100 | 16 | 60 | – | –
2 | CC(=O)C(=O)O [Pyruvate] | – | – | – | – | > 50 | > 50
